{
  "source": "patent US20250144168A1",
  "about": "“LANTHIPEPTIDES AND METHODS OF USE” (priority 2022, published 2025)",
  "key": {"[1]": {"system": "isolated human neutrophils", "assay": "Neutrophil chemotaxis assay (Zigmond chamber)", "assay_type": "cell-based", "method": "A suspension of 1×10^6 human PMNs in 100 μL HBSS containing 1% gelatin (Sigma-Aldrich) was placed on a 5% bovine serum albumin-coated 22×40 mm glass coverslip and incubated for 10 minutes at 37° C. Coverslips were then inverted onto a Zigmond chamber. Hundred microliters of HBSS and 100 μL HBSS containing N-formyl-methionyl-leucyl-phenylalanine (fMLP) 10^-6M or different concentrations of salivaricin 10 were added to the left and right chambers, respectively. PMN migration across the chamber was recorded with time-lapse of video microscopy at 20 second intervals for a period of 10 minutes using a Zeiss Motorized AxioVert (ZEISS). Captured images were analyzed using cell-tracking software (Retrac, v2.1.0.)."}, "M. luteus": {"system": "M. luteus", "assay": "Zone of inhibition of the isolated peptides (spot-on-lawn)", "assay_type": "cell-based", "details": "lantibiotic-sensitive target M. luteus", "method": "Pure and homogenized SALI-10 colonies were selected to inoculate 10 ml of TSB supplemented with 2% yeast extract. The fermentation was carried out overnight at 37° C. with 5% CO2 for 18 h. The produced culture was used to inoculate 20 Petri dishes (100 mm), each containing 20 mL of TSA supplemented with 2% yeast extract and 0.2% CaCO3 and incubated as mentioned above (step 1). The agar cultures were then cut into small pieces and put into 250 mL centrifugation bottles. The bottles were incubated at −80° C. for 18 h and thawed immediately in a 70° C. water bath to produce liquid material. The liquid material was then collected by centrifugation, and the resultant supernatant was extracted with one volume of chloroform. The white precipitate from chloroform extraction was dried and resuspended in 2 ml of 35% acetonitrile in water (v/v). Centrifugation was performed to remove insoluble material to produce a clear peptide extract (we call it material A). The process was repeated with induction procedure by adding 50 μl of material A to 50 ml of TSB supplemented with yeast extract and inoculating this media with SALI-10 strain by repeating step 1 and generating 300 induced agar cultures instead of 20. The induced and chloroform extracted peptide was dried as in step 1 and resuspended in 20 ml of 35% ACN in water (v/v) supplemented with 0.1% TFA. The peptides preparation was processed via solid-phase extraction using C18 Sep-Pak® column (Waters, USA) prewashed with methanol and water. After loading the peptides sample, the column was washed with 10 mL of increasing methanol concentrations (10%, 30%, 50%, 70%). Active peptides were eluted with 95% methanol supplemented with 0.1% TFA. The peptides were finally purified using HPLC and C18-Reversed Phase chromatography as mentioned previously. Eluted fractions (1 ml per minute) were tested for antimicrobial activity against the sensitive strain M. luteus ATCC10240 using the spot-on-lawn method."}, "[2]": {"system": "human whole blood neutrophils and monocytes", "assay": "Whole blood phagocytosis (pHrodo) and CD marker flow cytometry", "assay_type": "cell-based", "details": "N-terminal analogues, unlike full-length salivaricin 10", "description": "Neutrophils and monocytes display different activation states characterized by expression levels of cell surface CD marker in the oral cavity depending on the bacteria that they are interacting with. In health, neutrophils in the oral cavity are in a parainflammatory state, and with dysbiosis neutrophil phenotypes change towards a proinflammatory state. To determine if salivaricin 10 can prime neutrophils to augment pathogen elimination through phagocytosis, the surface expression of specific activation CD markers was assessed on human and murine neutrophils stimulated either with pHrodo (pH-sensitive, heat killed E. coli) alone or with salivaricin 10 and pHrodo. […]\nSONY SA3800 flow cytometer was used to acquire the data. […] To validate the gating strategy and antibody labeling FMO (fluorescence minus one) controls were used. […]\nData were analyzed by FlowJo software (v10.8; Tree Star). The mean fluorescence intensities (MFIs) for each CD marker were measured. Significant differences (P<0.05) were determined using GraphPad Prism 9 (GraphPad Software, Inc.). for the in-vitro human blood and mouse bone marrow assay paired Student's t-test (n=3) was used for the statistical analysis. […]"}, "[3]": {"system": "CXCL10 and TGM2 gene expression in M1 macrophages", "assay": "Macrophage gene expression assay (CXCL10, TGM2)", "assay_type": "cell-based", "details": "40 μg/mL"}, "[4]": {"system": "saliva-derived multispecies biofilms", "assay": "Preformed saliva-derived multispecies biofilm, Live/Dead confocal microscopy", "assay_type": "cell-based, human saliva bacteria", "details": "salivaricin 10 at 25 and 50 μg·ml^−1; nisin A at 50 μg·ml^−1; 20 min", "method": "Biofilms were formed ex-vivo using cell-free saliva as a medium and total salivary cell as inoculum (from healthy subjects). Twenty-four hours pre-formed multispecies biofilms grown anaerobically were treated with either nisin A (50 μg·ml^−1) or two concentrations of salivaricin 10 (25 and 50 μg·ml^−1) for a time exposure of 20 min. […] Salivaricin 10 penetrated saliva-derived multispecies biofilms and effectively killed the bacterial cells within (labeled with PI, lighter gray). No such effect was noticed with untreated (PBS) biofilms controls where the viable cells labeled mainly with Syto9, black. the ratio of live to dead cells decreased by a factor of 6 times compared to PBS treated conditions. […] This dose-dependent reduction in the oral biofilm thickness was reported previously for nisin A [27].\n12. Antimicrobial Activity Against Preformed Biofilms (Saliva-Derived De Novo Model)\nSaliva-derived biofilms were established in 24 well glass bottom sensoplates (Greiner Bio-One, Monroe, NC, USA) as mentioned previously. […] The mean Intensity of pixels for viable signals (Syto-9; live) and (PI; dead) were measured within biofilm areas of each image with the slices containing the highest respective signal intensity using custom Fiji (ImageJ). […] All quantifications and statistical calculations are based on 10-15 images and 5-10 stacks for each repeat (three repeats). […]"}, "[5]": {"system": "saliva-derived multispecies biofilms", "assay": "Preformed saliva-derived multispecies biofilm, 16S rRNA gene sequencing", "assay_type": "cell-based, human saliva bacteria", "description": "13. 16S rRNA Gene Sequencing […] 14. […] The UNOISE pipeline, available through […]11.0.667 and […]2.10.4, was used for sequence analysis. […] 5, a -[…] […] 1.0."}},
  "note": "Square brackets hold non-standard residues; d marks the D form. Ends that are not written are not given here. pT = C[C@@H](OP(=O)(O)O)[C@H](N)C(=O)O",
  "data": [
    {"compound": "CSCC[C@H](NC=O)C(=O)N[C@@H](CC(C)C)C(=O)N[C@@H](Cc1ccccc1)C(=O)O", "note": "[fMLP, N-formyl-methionyl-leucyl-phenylalanine, reference compound]", "values": [
      {"measurement": "neutrophil migration speed", "setting": "[1]; control peptide", "value": "~11", "unit": "μm/minute"}
    ]},
    {"compound": "GWFTAVQLTLAGRCGRWFTGSFECTTNNVKCG (cysteine pairing not given here; also: lanthionine modifications; listed as Streptococcus salivarius) [SrnA1, lanthipeptide of salivaricin 10, phenylalanine at position 22]", "values": [
      {"measurement": "antimicrobial activity (zone of inhibition) of the isolated peptide", "setting": "M. luteus", "value": "reduced"}
    ]},
    {"compound": "GWFTAVQLTLAGRCGRWFTGSYECTTNNVKCG (cysteine pairing not given here; also: lanthionine modifications; listed as Streptococcus salivarius) [SrnA2, major lanthipeptide of salivaricin 10, tyrosine at position 22]", "values": [
      {"measurement": "antimicrobial activity (zone of inhibition) of the isolated peptide", "setting": "M. luteus", "value": "more extensive zone of inhibition"}
    ]},
    {"compound": "GWSTAVRLTVQGRCGWWFTHSYECTSPNVRCG (cysteine pairing not given here; also: lanthionine modifications; listed as Streptococcus salivarius) [SrnA4]", "values": [
      {"measurement": "antimicrobial activity (zone of inhibition) of the isolated peptide", "setting": "M. luteus", "value": "Reduced antimicrobial activity"}
    ]},
    {"compound": "NH2-GWFTAVQL-COOH (H-GWF[pT]AVQL-OH; SMILES CC(C)C[C@H](NC(=O)[C@H](CCC(N)=O)NC(=O)[C@@H](NC(=O)[C@H](C)NC(=O)[C@@H](NC(=O)[C@H](Cc1ccccc1)NC(=O)[C@H](Cc1c[nH]c2ccccc12)NC(=O)CN)[C@@H](C)OP(=O)(O)O)C(C)C)C(=O)O; listed as Streptococcus salivarius) [p(1-8) Sali10, chemically synthesized eight N-terminal unbridged residues of SrnA1 and SrnA2 with pThr4]", "values": [
      {"measurement": "effects on the neutrophils' CD marker expression", "setting": "[2]", "value": "Neither p (1-8) Sali10 (SEQ ID NO: 16) nor np (1-8) Sali10 showed effects"},
      {"measurement": "gene expression of CXCL10 (M1 macrophage biomarker)", "setting": "[3]", "value": "downregulated"},
      {"measurement": "gene expression of TGM2 (M2 macrophage biomarker) compared to M1 control cells", "setting": "[3]", "value": "upregulated"},
      {"measurement": "neutrophil chemotaxis of the N-terminal tail analogues", "setting": "[1]; 40 μg/mL, compared with full-length salivaricin 10", "value": "very similar activity to the full-length salivaricin 10"}
    ]},
    {"compound": "nisin A", "values": [
      {"measurement": "damage to biofilm architecture (confocal images)", "setting": "[4]", "value": "significant and critical damage to the biofilm architecture"},
      {"measurement": "S. gordonii, S. parasanguinis levels in the biofilm", "setting": "[5]", "value": "strongly inhibited"},
      {"measurement": "commensal species of the genera Veillonella, Streptococcus and Haemophilus in the biofilm", "setting": "[5]; salivaricin 10 at 25 μg and 50 μg", "value": "disrupted the indigenous oral biofilm, including beneficial commensals"}
    ]}
  ]
}
